The target of this assay is T1, Human PD-L1/PD-1 (Homo sapiens, UniProt Q9NZQ7).
T1 construct: TVMV protease cleavage site (C); made in house; host or cells: HEK293T cells
Put plainly: HTRF Human PD-L1/PD-1 binding assay (PD-1-Ig/PD-L1-His). The settings on record: PD-L1-His 10 nM, PD-1-Ig 20 nM; class symbol; read-out: HTRF Human PD-L1/PD-1 Binding Assay IC50 Range. The procedure, abridged:
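HTRF competition using HEK293T-expressed human PD-1(25-167)-Ig at 20 nM and PD-L1(18-239)-His at 10 nM, compound incubated first with PD-L1 for 15 min, then with PD-1 for 15 min. Signal read as 665/620 nm ratio 30 min after adding Eu anti-Ig and APC anti-His antibodies.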

Molecules are shown by their SMILES. *1 amine or outer side, *2 acyl side, *3 side chain or, on linkers, in order; H or OH if unused. Where a SMILES comes first, the peptide text is derived from it. Bridges are numbered along the chain shown (N, C = ends). [ ]: non-standard residue; d: D form. Phe(3,4,5-F3) = N[C@@H](Cc1cc(F)c(F)c(F)c1)C(=O)O; Phe(3,4-F2) = N[C@@H](Cc1ccc(F)c(F)c1)C(=O)O; NMeF = CN[C@@H](Cc1ccccc1)C(=O)O; X1 = O=C([C@H]1COCCN1[*:1])[*:2]; dHyp = O=C(O)[C@H]1C[C@H](O)CN1; NMeNle = CCCC[C@H](NC)C(=O)O; Orn = NCCC[C@H](N)C(=O)O

T1 sequence (Q9NZQ7 with tags, fused parts or gaps): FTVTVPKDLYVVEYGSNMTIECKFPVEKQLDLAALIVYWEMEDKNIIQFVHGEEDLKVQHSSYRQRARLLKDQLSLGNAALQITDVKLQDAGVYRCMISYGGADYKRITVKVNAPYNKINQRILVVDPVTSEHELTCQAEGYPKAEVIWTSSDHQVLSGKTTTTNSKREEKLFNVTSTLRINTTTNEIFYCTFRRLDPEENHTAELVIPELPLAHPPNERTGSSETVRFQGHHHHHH

On to `CCCC[C@H]1C(=O)N2C[C@@H](O)C[C@@H]2C(=O)N[C@@H](CC(=O)O)C(=O)N[C@@H](C(C)C)C(=O)N(C)[C@@H](Cc2ccccc2)C(=O)N[C@@H](CCC(=O)O)C(=O)N2C[C@@H](O)C[C@@H]2C(=O)N[C@@H](Cc2c[nH]c3ccccc23)C(=O)N[C@@H](Cc2ccc(O)cc2)C(=O)N[C@@H](CC(C)C)C(=O)N[C@H](C(=O)NCC(N)=O)CSCC(=O)N[C@@H](Cc2cc(F)c(F)c(F)c2)C(=O)N(C)[C@@H](Cc2ccccc2)C(=O)N1C` [Example 9275] ({CH2CO}-[Phe(3,4,5-F3)][NMeF][NMeNle][dHyp]DV[NMeF]E[dHyp]WYLCG-NH2; thioether N-13), for which the IC50 was 1 to 9.9 nM. Turning to `CCCC[C@H]1C(=O)N2C[C@@H](O)C[C@@H]2C(=O)N[C@@H](CC(=O)O)C(=O)N[C@@H](C(C)C)C(=O)N(C)[C@@H](Cc2ccccc2)C(=O)N[C@@H](CCC(=O)O)C(=O)N2C[C@@H](O)C[C@@H]2C(=O)N[C@@H](Cc2c[nH]c3ccccc23)C(=O)N[C@@H](Cc2ccc(O)cc2)C(=O)N[C@@H](CCCN)C(=O)N[C@H](C(=O)NCC(N)=O)CSCC(=O)N[C@@H](Cc2cc(F)c(F)c(F)c2)C(=O)N(C)[C@@H](Cc2ccccc2)C(=O)N1C` [Example 9276] ({CH2CO}-[Phe(3,4,5-F3)][NMeF][NMeNle][dHyp]DV[NMeF]E[dHyp]WY[Orn]CG-NH2; thioether N-13), the IC50 was in the range of 1 to 9.9 nM. Under `CCCC[C@H]1C(=O)N2C[C@@H](O)C[C@@H]2C(=O)N[C@@H](CC(=O)O)C(=O)N[C@@H](C(C)C)C(=O)N(C)[C@@H](Cc2ccccc2)C(=O)N[C@@H](CCC(=O)O)C(=O)N2C[C@@H](O)C[C@@H]2C(=O)N[C@@H](Cc2c[nH]c3ccccc23)C(=O)N[C@@H](Cc2ccc(O)cc2)C(=O)N[C@@H](CC(C)C)C(=O)N[C@H](C(=O)NCC(N)=O)CSCC(=O)N[C@@H](Cc2ccc(F)c(F)c2)C(=O)N(C)[C@@H](Cc2ccccc2)C(=O)N1C` [Example 9277] ({CH2CO}-[Phe(3,4-F2)][NMeF][NMeNle][dHyp]DV[NMeF]E[dHyp]WYLCG-NH2; thioether N-13) stands 1 to 9.9 nM. On to `CCCC[C@H]1C(=O)N2C[C@@H](O)C[C@@H]2C(=O)N[C@@H](CC(=O)O)C(=O)N[C@@H](C(C)C)C(=O)N(C)[C@@H](Cc2ccccc2)C(=O)N[C@@H](CCC(=O)O)C(=O)N2C[C@@H](O)C[C@@H]2C(=O)N[C@@H](Cc2c[nH]c3ccccc23)C(=O)N[C@@H](Cc2ccc(O)cc2)C(=O)N[C@@H](CCCN)C(=O)N[C@H](C(=O)NCC(N)=O)CSCC(=O)N[C@@H](Cc2ccc(F)c(F)c2)C(=O)N(C)[C@@H](Cc2ccccc2)C(=O)N1C` [Example 9278] ({CH2CO}-[Phe(3,4-F2)][NMeF][NMeNle][dHyp]DV[NMeF]E[dHyp]WY[Orn]CG-NH2; thioether N-13), for which the IC50 was in the range of 1 to 9.9 nM.

For the molecule `CCCC[C@H]1C(=O)N2C[C@@H](O)C[C@@H]2C(=O)N[C@@H](CC(=O)O)C(=O)N[C@@H](C(C)C)C(=O)N(C)[C@@H](Cc2ccccc2)C(=O)N[C@@H](CCC(=O)O)C(=O)N2CCOC[C@@H]2C(=O)N[C@@H](Cc2c[nH]c3ccccc23)C(=O)N[C@@H](Cc2ccc(O)cc2)C(=O)N[C@@H](CCCN)C(=O)N[C@H](C(=O)NCC(N)=O)CSCC(=O)N[C@@H](Cc2ccc(F)c(F)c2)C(=O)N(C)[C@@H](Cc2ccccc2)C(=O)N1C` [Example 9279] ({CH2CO}-[Phe(3,4-F2)][NMeF][NMeNle][dHyp]DV[NMeF]E[X1]WY[Orn]CG-NH2; thioether N-13), the IC50 lay within 1 to 9.9 nM. Regarding `CCCC[C@H]1C(=O)N2CCOC[C@@H]2C(=O)N[C@@H](CC(=O)O)C(=O)N[C@@H](C(C)C)C(=O)N(C)[C@@H](Cc2ccccc2)C(=O)N[C@@H](CCC(=O)O)C(=O)N2C[C@@H](O)C[C@@H]2C(=O)N[C@@H](Cc2c[nH]c3ccccc23)C(=O)N[C@@H](Cc2ccc(O)cc2)C(=O)N[C@@H](CCCN)C(=O)N[C@H](C(=O)NCC(N)=O)CSCC(=O)N[C@@H](Cc2cc(F)c(F)c(F)c2)C(=O)N(C)[C@@H](Cc2ccccc2)C(=O)N1C` [Example 9280] ({CH2CO}-[Phe(3,4,5-F3)][NMeF][NMeNle][X1]DV[NMeF]E[dHyp]WY[Orn]CG-NH2; thioether N-13), the IC50 lay within 10 to 99.9 nM.

With `CCCC[C@H]1C(=O)N2CCOC[C@@H]2C(=O)N[C@@H](CC(=O)O)C(=O)N[C@@H](C(C)C)C(=O)N(C)[C@@H](Cc2ccccc2)C(=O)N[C@@H](CCC(=O)O)C(=O)N2CCOC[C@@H]2C(=O)N[C@@H](Cc2c[nH]c3ccccc23)C(=O)N[C@@H](Cc2ccc(O)cc2)C(=O)N[C@@H](CC(C)C)C(=O)N[C@H](C(=O)NCC(N)=O)CSCC(=O)N[C@@H](Cc2ccc(F)c(F)c2)C(=O)N(C)[C@@H](Cc2ccccc2)C(=O)N1C` [Example 9281] ({CH2CO}-[Phe(3,4-F2)][NMeF][NMeNle][X1]DV[NMeF]E[X1]WYLCG-NH2; thioether N-13), the IC50 was 1 to 9.9 nM. Under `CCCC[C@H]1C(=O)N2CCOC[C@@H]2C(=O)N[C@@H](CC(=O)O)C(=O)N[C@@H](C(C)C)C(=O)N(C)[C@@H](Cc2ccccc2)C(=O)N[C@@H](CCC(=O)O)C(=O)N2CCOC[C@@H]2C(=O)N[C@@H](Cc2c[nH]c3ccccc23)C(=O)N[C@@H](Cc2ccc(O)cc2)C(=O)N[C@@H](CCCN)C(=O)N[C@H](C(=O)NCC(N)=O)CSCC(=O)N[C@@H](Cc2cc(F)c(F)c(F)c2)C(=O)N(C)[C@@H](Cc2ccccc2)C(=O)N1C` [Example 9282] ({CH2CO}-[Phe(3,4,5-F3)][NMeF][NMeNle][X1]DV[NMeF]E[X1]WY[Orn]CG-NH2; thioether N-13) stands 10 to 99.9 nM.

On to `CCCC[C@H]1C(=O)N2CCOC[C@@H]2C(=O)N[C@@H](CC(=O)O)C(=O)N[C@@H](C(C)C)C(=O)N(C)[C@@H](Cc2ccccc2)C(=O)N[C@@H](Cc2ccc(O)cc2)C(=O)N2CCOC[C@@H]2C(=O)N[C@@H](Cc2c[nH]c3ccccc23)C(=O)N[C@@H](Cc2ccc(O)cc2)C(=O)N[C@@H](CC(C)C)C(=O)N[C@H](C(=O)NCC(N)=O)CSCC(=O)N[C@@H](Cc2cc(F)c(F)c(F)c2)C(=O)N(C)[C@@H](Cc2ccccc2)C(=O)N1C` [Example 9283] ({CH2CO}-[Phe(3,4,5-F3)][NMeF][NMeNle][X1]DV[NMeF]Y[X1]WYLCG-NH2; thioether N-13), for which the IC50 lay within 1 to 9.9 nM. Under `CCCC[C@H]1C(=O)N2CCOC[C@@H]2C(=O)N[C@@H](CC(=O)O)C(=O)N[C@@H](C(C)C)C(=O)N(C)[C@@H](Cc2ccccc2)C(=O)N[C@@H](Cc2ccc(O)cc2)C(=O)N2CCOC[C@@H]2C(=O)N[C@@H](Cc2c[nH]c3ccccc23)C(=O)N[C@@H](Cc2ccc(O)cc2)C(=O)N[C@@H](CCCN)C(=O)N[C@H](C(=O)NCC(N)=O)CSCC(=O)N[C@@H](Cc2cc(F)c(F)c(F)c2)C(=O)N(C)[C@@H](Cc2ccccc2)C(=O)N1C` [Example 9284] ({CH2CO}-[Phe(3,4,5-F3)][NMeF][NMeNle][X1]DV[NMeF]Y[X1]WY[Orn]CG-NH2; thioether N-13) stands 1 to 9.9 nM; under `CCCC[C@H]1C(=O)N2CCC[C@@H]2C(=O)N[C@@H](CC(=O)O)C(=O)N[C@@H](C(C)C)C(=O)N(C)[C@@H](Cc2ccccc2)C(=O)N[C@@H](CCC(=O)O)C(=O)N2C[C@@H](O)C[C@@H]2C(=O)N[C@@H](Cc2c[nH]c3ccccc23)C(=O)N[C@@H](Cc2ccc(O)cc2)C(=O)N[C@@H](CC(C)C)C(=O)N[C@H](C(=O)NCC(N)=O)CSCC(=O)N[C@@H](Cc2cc(F)c(F)c(F)c2)C(=O)N(C)[C@@H](Cc2ccccc2)C(=O)N1C` [Example 9285] ({CH2CO}-[Phe(3,4,5-F3)][NMeF][NMeNle][dP]DV[NMeF]E[dHyp]WYLCG-NH2; thioether N-13), 1 to 9.9 nM. Turning to `CCCC[C@H]1C(=O)N2CCC[C@@H]2C(=O)N[C@@H](CC(=O)O)C(=O)N[C@@H](C(C)C)C(=O)N(C)[C@@H](Cc2ccccc2)C(=O)N[C@@H](CCC(=O)O)C(=O)N2C[C@@H](O)C[C@@H]2C(=O)N[C@@H](Cc2c[nH]c3ccccc23)C(=O)N[C@@H](Cc2ccc(O)cc2)C(=O)N[C@@H](CCCN)C(=O)N[C@H](C(=O)NCC(N)=O)CSCC(=O)N[C@@H](Cc2cc(F)c(F)c(F)c2)C(=O)N(C)[C@@H](Cc2ccccc2)C(=O)N1C` [Example 9286] ({CH2CO}-[Phe(3,4,5-F3)][NMeF][NMeNle][dP]DV[NMeF]E[dHyp]WY[Orn]CG-NH2; thioether N-13), the IC50 was 1 to 9.9 nM. Under `CCCC[C@H]1C(=O)N2CCC[C@@H]2C(=O)N[C@@H](CC(=O)O)C(=O)N[C@@H](C(C)C)C(=O)N(C)[C@@H](Cc2ccccc2)C(=O)N[C@@H](Cc2ccc(O)cc2)C(=O)N2C[C@@H](O)C[C@@H]2C(=O)N[C@@H](Cc2c[nH]c3ccccc23)C(=O)N[C@@H](Cc2ccc(O)cc2)C(=O)N[C@@H](CC(C)C)C(=O)N[C@H](C(=O)NCC(N)=O)CSCC(=O)N[C@@H](Cc2cc(F)c(F)c(F)c2)C(=O)N(C)[C@@H](Cc2ccccc2)C(=O)N1C` [Example 9287] ({CH2CO}-[Phe(3,4,5-F3)][NMeF][NMeNle][dP]DV[NMeF]Y[dHyp]WYLCG-NH2; thioether N-13) stands 1 to 9.9 nM. As to `CCCC[C@H]1C(=O)N2CCC[C@@H]2C(=O)N[C@@H](CC(=O)O)C(=O)N[C@@H](C(C)C)C(=O)N(C)[C@@H](Cc2ccccc2)C(=O)N[C@@H](Cc2ccc(O)cc2)C(=O)N2C[C@@H](O)C[C@@H]2C(=O)N[C@@H](Cc2c[nH]c3ccccc23)C(=O)N[C@@H](Cc2ccc(O)cc2)C(=O)N[C@@H](CCCN)C(=O)N[C@H](C(=O)NCC(N)=O)CSCC(=O)N[C@@H](Cc2cc(F)c(F)c(F)c2)C(=O)N(C)[C@@H](Cc2ccccc2)C(=O)N1C` [Example 9288] ({CH2CO}-[Phe(3,4,5-F3)][NMeF][NMeNle][dP]DV[NMeF]Y[dHyp]WY[Orn]CG-NH2; thioether N-13), the IC50 lay within 1 to 9.9 nM.

For the origin of these results see patent US10538555B2, “Macrocyclic inhibitors of the PD-1/PD-L1 and CD80(B7-1)/PD-L1 protein/protein interactions” (BRISTOL-MYERS SQUIBB COMPANY, priority 2014, dated 2020).
